Holding throughout (assay): DTP human tumour cell line panel, 48 h
In assay [1] the test system is COLO 205.
Assay [2] concerns KM-20L2.
The test system of assay [3] is LXFL 529.
The subject of assay [4] is M19-MEL.
Assay [5] deals with NCI-H226.
The test system of assay [6] is RXF 393.
Assay [7] concerns SF-268.
The subject of assay [8] is SF-295.
In assay [9] the test system is SK-MEL-5.
For assay [10], the system named is SNB-78.
Assay [11] has as its system U-251.
For assay [12], the system named is UACC-257.
Assay [13] deals with DMS-273.
For assay [14], the system named is HCT-15.
The test system of assay [15] is MCF7.
Assay [16] has as its system BT-549.
Assay [17] has as its system DU-145.
The test system of assay [18] is Hs-578T.
For assay [19], the system named is MDA-MB-231.
Assay [20] concerns MDA-MB-435.

Consider 16 compounds from ChEMBL document CHEMBL1201862, “PubChem BioAssay data set” (2004).

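Each compound was tested at five concentrations against cells in 96-well plates for 48 hours. GI50 = concentration required for 50% inhibition of growth.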 Active and inactive are the calls of the source. Cut-off read from the data, not from the text of the source: active = GI50 up to about 1.1 µM and inactive = higher.

As to `Cc1c(OC(C)C(=O)O)ccc2c(-c3ccccc3)cc(=O)oc12` (stereo not drawn), the GI50 in [1], in assay [2], in assay [3], in [4], in [5] and in assay [6] was > 100 µM (inactive) in each case. Besides, the GI50 in assay [7], in assay [8], in assay [9], in assay [10], in assay [11] and in assay [12] was > 100 µM (inactive) each time.
`CCN(CC)CCO[Si](OCCN(CC)CC)(OCCN(CC)CC)OCCN(CC)CC`: the GI50 (usually the concentration that inhibits growth by half) in [1] was > 100 µM (inactive); in assay [13], > 100 µM (inactive); in assay [14] it was over 100 µM; in [2] it was > 100 µM (inactive); in assay [4], > 100 µM (inactive); in [5], 88.5 µM (inactive). In addition, the GI50 in [6], in assay [8], in assay [9], in assay [11] and in [12] was > 100 µM (inactive) throughout.
Turning to `Cc1cc(C)nc(NS(=O)(=O)c2ccc(NC(=O)c3cccc4c(Nc5ccc(S(=O)(=O)Nc6cc(C)on6)cc5)c5ccccc5nc34)cc2)n1`, the GI50 in assay [3] is 16.1 µM (inactive); in [4], 26 µM (inactive); in [6], 20.1 µM (inactive); in assay [7] it was 19.7 µM (inactive); in [10], 41.7 µM (inactive); in [11] it was 18.4 µM (inactive). In [12], the GI50 is 22.2 µM (inactive).
As to `NC(=O)OCC(COc1ccc(Cl)cc1)OC(=O)c1cc([N+](=O)[O-])cc([N+](=O)[O-])c1` (stereo not drawn), the GI50 in assay [1] is 39 µM (inactive); in [13], > 100 µM (inactive); in assay [14], 33.5 µM; in assay [2], > 100 µM (inactive); in assay [3], > 100 µM (inactive); in assay [5], > 100 µM (inactive). The GI50 in assay [6], in assay [7], in [8], in [9], in assay [10] and in [11] was > 100 µM (inactive) each time. Further, the GI50 in [12] is > 100 µM (inactive).
In the case of `O=C(NC(Cc1ccc(Cl)cc1)C(=O)O)c1ccc(I)cc1` (stereo not drawn), the GI50 is > 100 µM (inactive) in [1]; > 100 µM (inactive) in [13]; over 100 µM in assay [14]; > 100 µM (inactive) in [4]; > 67 µM (inactive) in assay [15]; > 100 µM (inactive) in assay [5]. Further, the GI50 in assay [6], in [7], in assay [8], in assay [9], in assay [10] and in assay [11] was > 100 µM (inactive) each time. Moreover, the GI50 in [12] was > 100 µM (inactive).
Take `Brc1cc(CCOC2CCCCO2)c(-c2sccc2CCOC2CCCCO2)s1` (stereo not drawn): the GI50 in assay [16] was 49.7 µM (inactive); in assay [1], 43.4 µM (inactive); in assay [17] it was > 100 µM (inactive); in assay [14], 33.3 µM; in assay [18], 13.9 µM (inactive); in assay [15], 20.3 µM (inactive). The GI50 was > 100 µM (inactive) in assay [19]; 37.7 µM (inactive) in assay [20]; > 100 µM (inactive) in assay [5]; 0.8 µM (active) in assay [6]; 53.6 µM (inactive) in [7]; 18.7 µM (inactive) in assay [8]. The GI50 was 26.9 µM (inactive) in [9], 57.8 µM (inactive) in assay [11] and 35.5 µM (inactive) in [12].
For the compound `CCc1ncc(C(C)(O)c2ccccc2)n1Cc1ccccc1` (stereo not drawn), the GI50 in assay [16] was 45.3 µM (inactive); in [1], 27.8 µM (inactive); in assay [17], > 100 µM (inactive); in assay [14], 41.5 µM; in [18], 33.4 µM (inactive); in assay [15] it was 67.8 µM (inactive). Moreover, the GI50 in assay [19] is 29.3 µM (inactive); in assay [20], 22.4 µM (inactive); in assay [5] it was 21.5 µM (inactive); in assay [6], > 100 µM (inactive); in [7], 99.8 µM (inactive); in assay [8], > 100 µM (inactive). Moreover, the GI50 in assay [9] is 17.8 µM (inactive); in assay [11], 34.6 µM (inactive); in [12] it was 29.4 µM (inactive).
Turning to `O=C(Cc1ccccc1)N/N=C(/c1nc2ccc([N+](=O)[O-])cc2nc1O)C(O)c1ccccc1Cl` (stereo not drawn), the GI50 is > 100 µM (inactive) in assay [1]; 40.6 µM in assay [14]; 69.7 µM (inactive) in assay [3]; > 100 µM (inactive) in [4]; > 100 µM (inactive) in assay [5]; > 100 µM (inactive) in assay [7]. In addition, the GI50 in [8] is > 100 µM (inactive); in [9] it was 41.4 µM (inactive); in [10], > 100 µM (inactive); in assay [11], > 100 µM (inactive); in [12], > 100 µM (inactive).
Regarding `C=CCNC(=O)N(CCC)CCCC(NC(C)=O)C(=O)NCc1ccccc1` (stereo not drawn), the GI50 is > 100 µM (inactive) in assay [1]; > 100 µM (inactive) in assay [13]; over 100 µM in [14]; > 100 µM (inactive) in assay [2]; > 100 µM (inactive) in assay [3]; > 100 µM (inactive) in assay [4]. For the same compound, the GI50 in [5] was 79.1 µM (inactive); in [6], > 100 µM (inactive); in assay [7] it was > 100 µM (inactive); in assay [8], > 100 µM (inactive); in [9], > 100 µM (inactive); in assay [11], > 100 µM (inactive). Also, the GI50 in assay [12] is > 100 µM (inactive).
Regarding `CC(C)C1=C(O)C(=O)C2=C(C1=O)C(OC=O)C(O)C1C(C)(C)CCCC21C` (stereo not drawn), the GI50 is 8.36 µM (inactive) in [16]; 3.54 µM (inactive) in assay [1]; 5.06 µM (inactive) in [17]; 4.04 µM in assay [14]; 8.51 µM (inactive) in assay [18]; 11.4 µM (inactive) in assay [15]. In addition, the GI50 in assay [19] is 5.79 µM (inactive); in assay [20], 2.73 µM (inactive); in [5], 5.08 µM (inactive); in assay [6], 6.82 µM (inactive); in assay [7], 10.5 µM (inactive); in [8], 14.2 µM (inactive). For the same compound, the GI50 was 3.7 µM (inactive) in assay [9], 4.28 µM (inactive) in assay [11] and 9.1 µM (inactive) in assay [12].
Consider `CCOC(=O)Cc1cc(OC)c(OC)cc1/C(Cl)=C(\CO)c1ccc(OC)c(OC)c1`, for which the GI50 in assay [1] was > 100 µM (inactive); in [13] it was > 100 µM (inactive); in assay [14], over 100 µM; in assay [2], > 100 µM (inactive); in [4], > 100 µM (inactive); in assay [6], 37.9 µM (inactive). Besides, the GI50 was 39.8 µM (inactive) in assay [8]; 30.7 µM (inactive) in assay [9]; 59 µM (inactive) in assay [10]; 64 µM (inactive) in assay [11]; > 100 µM (inactive) in [12].
Consider `C=C(C)C1Cc2c(cc(O)c3c(=O)c4ccccc4n(C)c23)O1` (stereo not drawn), for which the GI50 in assay [1] is > 100 µM (inactive); in [13], 31.3 µM (inactive); in [14], over 100 µM; in assay [2] it was > 100 µM (inactive); in assay [3], 34 µM (inactive); in assay [5], 37.1 µM (inactive). In addition, the GI50 is 15.6 µM (inactive) in assay [6]; 21.5 µM (inactive) in assay [7]; 7.45 µM (inactive) in assay [8]; 27.7 µM (inactive) in assay [9]; 35.6 µM (inactive) in assay [10]; 56 µM (inactive) in assay [11]. The GI50 in assay [12] is > 100 µM (inactive).
Take `COC(=O)C12C3C4C1C1C2C3C41C(=O)O` (stereo not drawn): the GI50 was > 100 µM (inactive) in assay [1]; over 100 µM in assay [14]; > 100 µM (inactive) in assay [2]; > 100 µM (inactive) in assay [3]; > 100 µM (inactive) in assay [4]; > 100 µM (inactive) in [5]. The GI50 in [6], in assay [7], in [8], in assay [9], in assay [10] and in [11] was > 100 µM (inactive) in each case. The GI50 in assay [12] is > 100 µM (inactive).
With `COc1cc(C2c3cc4c(cc3[C@@H](Nc3cccc(CO)c3)C3COC(=O)[C@H]23)OCO4)cc(OC)c1O` (stereo partly drawn), the GI50 in [1] is 1.54 µM (inactive); in assay [13], 0.153 µM (active); in [14] it was 0.875 µM; in [2] it was 0.766 µM (active); in assay [4], 0.871 µM (active); in assay [15], 0.22 µM (active). The GI50 in assay [5] was 0.308 µM (active); in assay [6], 1.27 µM (inactive); in assay [7] it was 0.923 µM (active); in assay [8] it was 0.218 µM (active); in assay [9] it was 0.56 µM (active); in assay [11] it was 0.516 µM (active). Further, in [12], the GI50 was 0.173 µM (active).
Take `Nc1ncnc2c1ncn2C1C(O)C=C(CO)C1O` (stereo not drawn): the GI50 in assay [1] is > 625 µM (inactive); in assay [13], > 625 µM (inactive); in assay [14] it was over 625 µM; in assay [2], > 625 µM (inactive); in assay [4], > 625 µM (inactive); in assay [15] it was > 625 µM (inactive). For the same compound, the GI50 in [5], in assay [7], in [8], in assay [9] and in [10] was > 625 µM (inactive) throughout.
For the compound `COc1cc(C)c(CC/C(C)=C/Cc2cc(O)ccc2O)c(C)c1C` [PANICEIN A HYDROQUINONE], the GI50 in assay [1] was > 25 µM (inactive); in assay [13], > 25 µM (inactive); in [14], over 25 µM; in assay [2], > 25 µM (inactive); in [3] it was > 25 µM (inactive); in assay [4], > 25 µM (inactive). Further, the GI50 in assay [5], in assay [6], in [7], in assay [8], in assay [9] and in assay [11] was > 25 µM (inactive) each time.
